In patent US9174953B2, “Bicyclic thiazoles as allosteric modulators of mGluR5 receptors” (Janssen Pharmaceutica NV, priority 2009, dated 2015):
pEC50: −log10 of the molar value.

Tests used:
human mGluR5 receptor = biological target: T1, human mGluR5 receptor (Homo sapiens, UniProt P41594); assay: intracellular Ca2+ mobilization assay, potentiation of glutamate EC20 response (FDSS); type: cell-based; settings: for Emax: HEK293, maximum % effect in concentration-response curve, relative to glutamate ECMax-treated wells, HEK-293 human mGluR5; for pEC50: human mGluR5 stably expressed in HEK-293 cells, Fluo-4 AM, increase in glutamate EC20 (~0.2 μM) response
T1 construct: expressed in transfected cells
T1 sequence (P41594 21-1212): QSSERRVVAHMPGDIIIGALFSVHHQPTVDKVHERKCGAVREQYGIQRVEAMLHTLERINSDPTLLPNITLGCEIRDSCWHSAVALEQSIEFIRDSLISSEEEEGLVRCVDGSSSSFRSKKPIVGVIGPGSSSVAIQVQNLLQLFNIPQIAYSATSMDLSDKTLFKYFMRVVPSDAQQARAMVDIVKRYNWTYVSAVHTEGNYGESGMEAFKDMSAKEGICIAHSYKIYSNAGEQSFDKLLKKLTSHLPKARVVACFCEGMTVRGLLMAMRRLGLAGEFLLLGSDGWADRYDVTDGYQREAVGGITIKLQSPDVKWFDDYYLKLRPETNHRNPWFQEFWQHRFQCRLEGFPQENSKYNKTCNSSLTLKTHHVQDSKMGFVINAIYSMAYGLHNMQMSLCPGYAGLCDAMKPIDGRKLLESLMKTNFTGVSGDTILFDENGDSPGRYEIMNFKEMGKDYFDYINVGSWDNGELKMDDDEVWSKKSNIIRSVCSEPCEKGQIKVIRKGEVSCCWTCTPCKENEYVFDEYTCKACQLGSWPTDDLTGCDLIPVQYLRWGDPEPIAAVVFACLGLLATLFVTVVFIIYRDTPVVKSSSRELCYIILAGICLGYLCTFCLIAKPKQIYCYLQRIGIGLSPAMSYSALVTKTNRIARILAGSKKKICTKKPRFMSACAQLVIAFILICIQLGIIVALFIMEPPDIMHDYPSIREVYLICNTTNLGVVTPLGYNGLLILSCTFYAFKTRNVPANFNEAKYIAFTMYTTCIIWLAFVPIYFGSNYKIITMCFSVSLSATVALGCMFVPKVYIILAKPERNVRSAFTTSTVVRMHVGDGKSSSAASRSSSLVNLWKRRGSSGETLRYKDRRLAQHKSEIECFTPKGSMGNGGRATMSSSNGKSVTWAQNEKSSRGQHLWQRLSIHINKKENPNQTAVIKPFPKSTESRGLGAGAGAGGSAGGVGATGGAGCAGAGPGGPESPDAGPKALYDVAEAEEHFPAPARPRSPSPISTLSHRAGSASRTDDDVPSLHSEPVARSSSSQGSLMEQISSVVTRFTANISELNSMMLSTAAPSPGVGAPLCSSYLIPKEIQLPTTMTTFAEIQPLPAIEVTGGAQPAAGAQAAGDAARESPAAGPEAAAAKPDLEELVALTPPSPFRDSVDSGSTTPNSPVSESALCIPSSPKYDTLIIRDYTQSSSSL
Description: The compounds provided in the present invention are positive allosteric modulators of mGluR5. These compounds appear to potentiate glutamate responses by binding to an allosteric site other than the glutamate binding site. The response of mGluR5 to a concentration of glutamate is increased when compounds of Formula (I) are present. Compounds of Formula (I) are expected to have their effect substantially at mGluR5 by virtue of their ability to enhance the function of the receptor. The behaviour of positive allosteric modulators tested at mGluR5 using the intracellular Ca^2+ mobilization binding assay method described below and which is suitable for the identification of such compounds.
In brief, the human mGluR5 receptor was stably expressed in HEK-293 cells and grown at a density of 40,000 cells/well in PDL-coated 384-well plates. Cells were preloaded with the calcium-sensing dye Fluo-4 AM and various concentrations of test compound were added in the absence of exogenous glutamate to test for direct agonist activity. Shortly (2.5 min) thereafter, an EC20 equivalent of glutamate (˜0.2 μM) was added. The fluorescence signal was monitored using a Hamamatsu Functional Drug Screening System (FDSS) fluorescence plate reader following the addition of compound alone (direct agonist response) and then the further addition of an EC20 of glutamate (positive allosteric modulation response). The pEC50 was defined as the negative log of the test compound concentration which produced an increase in the glutamate EC20-mediated response that was 50% of maximum. Individual amplitudes were expressed as % effect by multiplying each amplitude by 100 and then dividing the product by the mean of the amplitudes derived from the glutamate ECMax-treated wells. Emax values reported in this application are defined as the maximum % effect obtained in a concentration-response curve.

| Compound | melting point | Emax (human mGluR5 receptor) | pEC50 (human mGluR5 receptor) |
| --- | --- | --- | --- |
| O=C1CCCc2nc(C#Cc3ccccc3)sc21 [Compound 1, 5,6-dihydro-2-(phenylethynyl)-7(4H)-benzothiazolone] | 117.1 to 119.9 °C | 100% | 7.29 |
| O=C1CCCc2nc(C#Cc3cncc(F)c3)sc21 [Compound 2, 2-[(5-fluoro-3-pyridinyl)ethynyl]-5,6-dihydro-7(4H)-benzothiazolone] | 139.2 to 141.9 °C | 83% | 5.37 |
| O=C1NCCc2nc(C#Cc3ccccc3)sc21 [Compound 3, 6,7-dihydro-2-(phenylethynyl)-thiazolo[5,4-c]pyridin-4(5H)-one] | 232.1 to 235.1 °C | 78% | 6.66 |
| CN1CCc2nc(C#Cc3ccccc3)sc2C1=O [Compound 4, 6,7-dihydro-5-methyl-2-(phenylethynyl)-thiazolo[5,4-c]pyridin-4(5H)-one] | 146.1 to 147.2 °C | 79% | 7.16 |
| O=C1CCCc2nc(CCc3ccccc3)sc21 [Compound 6, 5,6-dihydro-2-(2-phenylethyl)-7(4H)-benzothiazolone] |  | 51% | 4.73 |
| O=C1NCCCc2nc(-c3ccc(N4CCCCC4)nc3)sc21 [Compound 8] | 260.3 to 264 °C | 11% | 5.30 |
| CN1CCOc2cc(-c3nc4c(s3)C(=O)CCC4)ccc21 [Compound 9, 2-(4-methyl-3,4-dihydro-2H-1,4-benzoxazin-7-yl)-5,6-dihydro-1,3-benzothiazol-7(4H)-one] | 218.1 to 220.8 °C | 77% | 5.20 |
| O=C1CCCc2nc(C#Cc3cccnc3)sc21 [Compound 10, 5,6-dihydro-2-(3-pyridinylethynyl)-7(4H)-benzothiazolone] | 109.5 to 112 °C | 92% | 5.82 |
| COCCN1CCc2nc(C#Cc3ccccc3)sc2C1=O [Compound 11, 6,7-dihydro-5-(2-methoxyethyl)-2-(phenylethynyl)-thiazolo[5,4-c]pyridin-4 (5H)-one] | 144.5 to 148.2 °C | 64% | 6.56 |
| O=C1c2sc(C#Cc3ccccc3)nc2CCN1Cc1ccccc1 [Compound 12, 6,7-dihydro-2-(phenylethynyl)-5-(phenylmethyl)-thiazolo[5,4-c]pyridin-4(5H)-one] | 141.5 to 152.5 °C | 90% | 6.33 |
| O=C1c2sc(OCc3ccncc3)nc2CCN1c1ccc(F)cc1 [Compound 21] | 169.1 to 170.9 °C |  |  |
| O=C1c2sc(NCc3ccccc3)nc2CCN1c1ccc(F)cc1 [Compound 22] | 221.3 °C |  |  |
| O=C1c2sc(OCc3cccnc3)nc2CCN1c1ccc(F)cc1F [Compound 23] | 106 to 110 °C |  |  |
| O=C1c2sc(OCc3ccccn3)nc2CCN1c1ccc(F)cc1F [Compound 24] | 98.1 to 100.1 °C |  |  |
